# Source: publication PMC7432094, “Flexible NAD^+ Binding in Deoxyhypusine Synthase Reflects the Dynamic Hypusine Modification of Translation Factor IF5A” (International Journal of Molecular Sciences, 2020)
# Molecular target: T1, PhoDHS (deoxyhypusine synthase from Pyrococcus horikoshii OT3) (Pyrococcus horikoshii, UniProt O50105)
# T1 construct: gene dys; full length 1-342, 39 kDa; N-terminal His6 tag with TEV site, tag cleaved; expressed in E. coli B834 (DE3) pRARE2; homotetramer about 130 kDa
# Experiment: X-ray crystal structure ([…] Å); UV absorbance of NAD+ bound in solution
# Type: binding
# Conditions: NAD+ co-purified from E. coli, none added for the crystal; crystals at pH 4.8, 20 °C; UV at pH 8.0; site at the molA/molD interface
# T1 sequence (O50105 whole entry): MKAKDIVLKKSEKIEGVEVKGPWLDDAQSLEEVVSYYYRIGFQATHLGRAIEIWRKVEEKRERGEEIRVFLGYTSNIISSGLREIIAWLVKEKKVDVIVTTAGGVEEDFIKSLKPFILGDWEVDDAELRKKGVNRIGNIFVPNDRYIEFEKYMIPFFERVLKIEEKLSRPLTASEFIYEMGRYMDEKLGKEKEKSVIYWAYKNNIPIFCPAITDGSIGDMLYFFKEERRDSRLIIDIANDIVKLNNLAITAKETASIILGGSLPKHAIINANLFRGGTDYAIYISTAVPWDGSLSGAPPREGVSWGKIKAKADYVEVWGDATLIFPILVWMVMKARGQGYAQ
smiles,measurement,value
NC(=O)c1ccc[n+]([C@@H]2O[C@H](COP(=O)(O)OP(=O)(O)OC[C@H]3O[C@@H](n4cnc5c(N)ncnc54)[C@H](O)[C@@H]3O)[C@@H](O)[C@H]2O)c1 [NAD^+],X-ray crystal structure (2.2 Å); UV absorbance of NAD+ bound in solution,Two bulky electron density blocks shaped as NAD^+ were distinguished at the interface between molA
